# Data taken from ChEMBL document CHEMBL4330075, “Discovery of Novel Quinoline-Chalcone Derivatives as Potent Antitumor Agents with Microtubule Polymerization Inhibitory Activity” (J Med Chem, 2019).
# pIC50: −log10 of the molar value.
# Experiments:
# K562 [1] = experiment: Induction of apoptosis in human K562 assessed as necrotic cells at 5 nM after 48 hrs by Annexin V-APC/propidium iodide staining-based flow cytometric analysis (reference value: 1.92%); format: functional
# K562 [2] = experiment: Induction of apoptosis in human K562 assessed as late apoptotic cells at 5 nM after 48 hrs by Annexin V-APC/propidium iodide staining-based flow cytometric analysis (reference value: 1.30%); format: functional
# HepG2 = experiment: cells; conditions: Homo sapiens, HepG2, 72 h
# [3] = Antitumor activity against […] H22 cells xenografted in ICR mouse assessed as reduction in tumor weight at 20 mg/kg, iv qd for 21 consecutive days and measured every 2 days relative to control; format: functional; set-up: scale not given: the % may be the effect or the level left
# [4] = Toxicity in ICR mouse assessed as mouse survival at 800 mg/kg, iv for 14 days relative to control; format: organism-based; conditions: in vivo
# [5] = Toxicity in ICR mouse xenografted with […] cells assessed as effect on lung at 10 to 20 mg/kg, iv qd for 21 consecutive days by H and E staining-based assay; format: organism-based; conditions: in vivo
# [6] = Toxicity in ICR mouse xenografted with […] cells assessed as effect on spleen at 10 to 20 mg/kg, iv qd for 21 consecutive days by H and E staining-based assay; format: organism-based; conditions: in vivo
# K562 [7] = experiment: Cell cycle arrest in human K562 cells assessed as accumulation of cells at S phase at 20 nM after 48 hrs by propidium iodide staining-based flow cytometric analysis (reference value: 36.27%); format: functional
# HCT-8 = experiment: Antiproliferative activity against human HCT8 cells after 72 hrs by MTT assay; format: functional, cell-based; conditions: HCT-8, 72 h
# K562 [8] = experiment: Induction of mitochondrial membrane potential disruption in human K562 cells assessed as intact mitochondrial membrane potential at 20 nM after 48 hrs by JC-1 staining-based flow cytometric analysis (reference value: 99.12%); format: functional
# K562 [9] = experiment: Induction of apoptosis in human K562 assessed as necrotic cells at 20 nM after 48 hrs by Annexin V-APC/propidium iodide staining-based flow cytometric analysis (reference value: 1.92%); format: functional
# [10] = Toxicity in ICR mouse assessed as mouse survival at 1000 mg/kg, iv for 14 days relative to control; format: organism-based; conditions: in vivo
# [11] = Cytotoxicity against human MDA-MB-231 cells assessed as growth inhibition at 10 nM after 48 hrs; format: cell-based; conditions: read-out: GI
structure (smiles),measurement,setting,value
COc1ccc(/C=C(\C)C(=O)c2cc(C)nc3ccccc23)cc1O,Activity,K562 [1],2.63%
same,Activity,K562 [2],4.34%
same,pIC50,HepG2,7.82
same,Activity,[3],65.3%
same,survival at 336 h,[4],30%
same,Activity,[5],Non-Toxic
same,Activity,[6],Non-Toxic
same,Activity,K562 [7],30.35%
same,pIC50,HCT-8,7.82
same,Activity,K562 [8],46.39%
same,Activity,K562 [9],4.86%
same,survival at 336 h,[10],10%
same,"inhibition at 48 h, 0.01 µM",[11],< 10%
